Each structure is given as a SMILES string. ≈ marks a conversion by molar mass, not a printed value. Where two headings read alike, the source gives them in different places. Marks after values point to notes of the source that are not given here.

This note sets out measurements from patent US20180312473A1, “PHENAZINE DERIVATIVES AS ANTIMICROBIAL AGENTS” (priority 2015, published 2018).

The subject of data set [1] is S. aureus clinical isolate SA 156. In words: MIC assay (broth microdilution, CLSI). Conditions: Staphylococcus aureus, read-out: MIC, SA 156.
In data set [2] the test system is S. aureus clinical isolate SA 138. In words: MIC assay (broth microdilution, CLSI). Conditions: Staphylococcus aureus, read-out: MIC, SA 138.
The subject of data set [3] is methicillin-sensitive S. aureus strains. In words: MIC assay. Type of data set: cell-based. Conditions: Staphylococcus aureus; read-out: MIC against methicillin-sensitive S. aureus strains.
Data set [4] deals with S. aureus clinical isolate SA 129. In words: MIC assay (broth microdilution, CLSI). Conditions: Staphylococcus aureus, read-out: MIC, SA 129. For orientation: In broth dilution the organism is exposed to a series of concentrations in liquid medium.
Data set [5] can be described thus: Mouse toxicity evaluation. Conditions: once daily oral gavage in corn oil, 7 days; 202 22.1 mg/kg, 209 4.2 mg/kg. Type of data set: in vivo, C57BL/6 mice. As for the experimental part: Groups of five C57BL/6 mice (Charles River Laboratories International, Inc.; mice were eight weeks old) were treated once daily with HPs 202 (22.1 mg/kg) and 209 (4.2 mg/kg) for 7 days via oral gavage (0.25 mL of formulated corn oil for 25 gram mouse on average).

Data set [6] deals with Enterococcus faecium (ATCC 700221), VRE. In words: MIC assay (broth microdilution, CLSI). It is filed as cell-based.
For data set [7], the system named is Staphylococcus epidermidis (ATCC 35984), MRSE. In words: MIC assay (broth microdilution, CLSI). Type of data set: cell-based. Conditions: for MIC: Staphylococcus epidermidis.
A further data set deals with MRSA-2. In words: MIC assay with Tiron or metal(II) cation co-treatment. Type of data set: cell-based, Staphylococcus aureus. Conditions: Staphylococcus aureus.
Data set [8] relates to MRSA-1 (methicillin-resistant Staphylococcus aureus clinical isolate). In words: MIC assay (broth microdilution, CLSI). Type of data set: cell-based. Conditions: Staphylococcus aureus, MRSA, read-out: MIC, MRSA-1.
The test system of a further data set is MRSA BAA-1707. In words: MIC assay (broth microdilution, CLSI). Conditions: Staphylococcus aureus, read-out: MIC, MRSA BAA-1707.
Another data set relates to HeLa cells. In words: in vitro. It is filed as cell-based. Conditions: human, 24 h.
Another data set can be described thus: in vitro. Conditions: human. Type of data set: cell-based.
Another data set has as its system E. faecium 700221 (VRE). In words: MIC assay with Tiron or metal(II) cation co-treatment. Type of data set: cell-based, Enterococcus faecium.
A further data set concerns MRSA BAA-44. In words: MIC assay (broth microdilution, CLSI). Conditions: Staphylococcus aureus, read-out: MIC, MRSA BAA-44.
Data set [9] has as its system M. tuberculosis H37Ra (ATCC 25177). In words: Mycobacterium tuberculosis MIC assay. It is filed as cell-based. Conditions: Mycobacterium tuberculosis. The method in brief: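 Culture diluted to OD600 0.01 and exposed to compounds in 0.5% final DMSO, each compound tested in three rows. Growth read as OD600 absorbance. Data from three independent experiments.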
Data set [10] concerns Staphylococcus epidermidis (ATCC 12228). In words: MIC assay (broth microdilution, CLSI). It is filed as cell-based. Conditions: Staphylococcus epidermidis, ATCC12228.
Data set [11] concerns VRE (E. faecium ATCC 700221) planktonic cells and biofilms. In words: Calgary Biofilm Device (CBD) assay, MBC/MBEC. It is filed as cell-based, Enterococcus faecium. Conditions: c lowest concentration tested; for MBC: Enterococcus.
For another data set, the system named is S. epidermidis 12228. In words: MIC assay with Tiron or metal(II) cation co-treatment. Type of data set: cell-based, Staphylococcus epidermidis. Conditions: Staphylococcus epidermidis.
Another data set relates to human red blood cells. In words: Hemolysis assay with red blood cells. Conditions: human, 1 h, 200 μM, pH 7.2. A digest of the protocol: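 Washed human red blood cells exposed to compounds added from DMSO stocks, 1 h at 37° C.; supernatant OD read at 405 nm after centrifugation. % hemolysis calculated relative to DMSO (0%) and Triton X (100%) controls, from three independent experiments.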

Data set [12] has as its system MRSA BAA-1707 planktonic cells and biofilms. In words: Calgary Biofilm Device (CBD) assay, MBC/MBEC. Conditions: Staphylococcus aureus, read-out: MRSA BAA-1707 MBC.

The MIC is the least concentration at which growth counts as inhibited. In the case of `COc1cccc(OC)c1C(=O)N[C@@H]1C(=O)N2[C@@H]1SC(C)(C)[C@@H]2C(=O)O` [Methicillin, methicillin, reference compound], the MIC in data set [1] was 50 µM (≈ 19 µg/mL); in data set [2], 25 µM (≈ 9.51 µg/mL); in data set [3], 0.8 to 1.56 µM (≈ 0.304 to 0.593 µg/mL); in data set [4] it was 25 µM (≈ 9.51 µg/mL).

For orientation: IC50 means the point on the concentration scale where inhibition reaches its midpoint. Read a low IC50 as inhibition by little substance. With `Oc1c(Br)cc(Br)c2nc3cc(Cl)c(Cl)cc3nc12` [Compound 16], in data set [5], the “adverse side effects (changes in weight, seizure, death)” value is listed as “no adverse side effects”. Further, the MIC in data set [6] (Enterococcus faecium, Table 2A, read-out: MIC, Enterococcus faecium (ATCC 700221)) is 0.39 µM (≈ 0.165 µg/mL); in data set [6] (Enterococcus faecium, Table 2B, b lowest concentration tested, read-out: MIC, Enterococcus faecium (ATCC 700221)), 0.39 µM (≈ 0.165 µg/mL); in data set [6] (Table 7, b lowest concentration tested, read-out: MIC, VRE 700221) it was 0.39 µM (≈ 0.165 µg/mL); in data set [7] (Table 2A, read-out: MIC, Staphylococcus epidermidis (ATCC 35984)) it was 0.2 to 0.39 µM (≈ 0.0846 to 0.165 µg/mL); in data set [7] (Table 2B, read-out: MIC, Staphylococcus epidermidis (ATCC 35984)) it was 0.3 µM (≈ 0.127 µg/mL); in data set [7] (Table 7, read-out: MIC, MRSE 35984), 0.3 to 0.59 µM (≈ 0.127 to 0.25 µg/mL). The MIC in the data set with MRSA-2 (MRSA-2, without Tiron, read-out: MIC) was 12.5 µM; with MRSA-2 (MRSA-2, b lowest concentration tested, read-out: MIC with Tiron), 0.1 µM; in data set [8] (Table 2A) it was 12.5 µM (≈ 5.29 µg/mL); in [8] (Table 2B, b lowest concentration tested) it was 12.5 µM (≈ 5.29 µg/mL); in the data set with MRSA BAA-1707 it was 25 µM (≈ 10.6 µg/mL); with E. faecium 700221 (VRE) (VRE 700221, without Tiron, read-out: MIC), 0.39 µM. Further, the MIC was 0.39 µM in the data set with E. faecium 700221 (VRE) (VRE 700221, read-out: MIC with Tiron); 50 µM (≈ 21.1 µg/mL) in the data set on MRSA BAA-44; 6.25 µM (≈ 2.64 µg/mL) in data set [9] (168 h, M. tuberculosis H37Ra, 7 days, read-out: Mtb MIC); 6.25 µM (≈ 2.64 µg/mL) in data set [9] (Table 7, read-out: MIC, M. tuberculosis H37Ra); 0.05 to 0.1 µM (≈ 0.0211 to 0.0423 µg/mL) in [10] (Table 2A, read-out: MIC, Staphylococcus epidermidis (ATCC 12228)); 0.08 µM (≈ 0.0338 µg/mL) in data set [10] (Table 7, b lowest concentration tested, read-out: MIC, S. epidermidis 12228). Also, the MIC stood at 0.1 µM with S. epidermidis 12228 (S. epidermidis 12228, without Tiron, read-out: MIC) and 0.1 µM in the data set with S. epidermidis 12228 (S. epidermidis 12228, read-out: MIC with Tiron). Also, the “MIC, MRSE 35984” value in [7] (Table 7) is listed as 0.30^a μM. The molecule further had an IC50 with HeLa cells of over 100 µM. In “in vitro”, the IC50 at 24 h is over 100 µM. Further, the MBC came out at 0.39 µM (≈ 0.165 µg/mL) in data set [11] (Table 5, read-out: VRE MBC); 0.39 µM (≈ 0.165 µg/mL) in data set [11] (Table 8, read-out: VRE 700221 MBC); 6.25 µM (≈ 2.64 µg/mL) in data set [12]. The “VRE MBEC” value in data set [11] (Table 5) is given as 0.39/0.39 μM. The “% Hemolysis (200 μM)” value in the data set with human red blood cells is at most 1%.
